We go through 1 molecule from patent US20180312534A1, “FLUORESCENT ANTICANCER PLATINUM DRUGS” (INVICTUS ONCOLOGY PVT. LTD., priority 2015, published 2018).

The assay deals with A549. Kind of assay: Cellular uptake of fluorescent compounds (fluorescence microscopy). The following applies: A549, post 5-hours incubation. The assay is classed as cell-based. How it is done: The intracellular localization of molecules was visualized by fluorescence microscopy. Cells were seeded on cover slips to a confluency of 40% and grown for 24 hours in a humidified chamber. Cells were treated with fluorescent compounds and incubated for 2, 5 and 24 hours. Following incubation, cells were washed with PBS, fixed in 4% paraformaldehyde and observed under epifluorescence microscope. Images were recorded in phase contrast and fluorescent channels. Cells treated with vehicle and/or ligand were considered as control and microscopically evaluated.

As for `NCC(N)C(=O)OCCNc1ccc2cccc3c2c1C(=O)C=C3` (stereo not shown) [Im-02], the “intracellular localization of fluorescence” value is on record as “punctate dots in the cytoplasm or along cell margins”.
